Assay [1] deals with T1, mouse GLP-1 receptor (Mus musculus, UniProt O35659).
T1 sequence (O35659 22-463): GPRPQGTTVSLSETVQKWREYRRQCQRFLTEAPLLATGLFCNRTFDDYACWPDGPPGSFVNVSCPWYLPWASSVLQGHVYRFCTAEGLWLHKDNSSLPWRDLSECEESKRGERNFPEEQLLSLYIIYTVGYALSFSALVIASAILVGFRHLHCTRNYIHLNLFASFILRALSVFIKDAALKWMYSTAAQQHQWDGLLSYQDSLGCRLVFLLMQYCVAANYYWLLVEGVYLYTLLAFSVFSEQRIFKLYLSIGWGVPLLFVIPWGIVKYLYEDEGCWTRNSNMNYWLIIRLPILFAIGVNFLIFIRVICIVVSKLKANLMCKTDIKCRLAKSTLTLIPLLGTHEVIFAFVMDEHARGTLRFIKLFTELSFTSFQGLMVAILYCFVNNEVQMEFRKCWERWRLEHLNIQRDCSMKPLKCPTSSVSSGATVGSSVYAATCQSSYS
The settings on record: for Potency (%), percentage of potency compare to GLP-1-G^2: cAMP production, from EC50.

Assay [2] has as its target T1, mouse GLP-1 receptor. As to the kind of experiment: cell-based. The settings on record: for Emax: read-out: Top (best-fit value), variable slope four-parameter fit, unconstrained, 14: experiment 1.

The structures appear in SMILES notation. A value given as a limit tells only on which side of the number the result lay.

In the case of `CC[C@H](C)[C@H](NC(=O)[C@H](Cc1ccccc1)NC(=O)[C@H](CCC(=O)O)NC(=O)[C@H](CCCCN)NC(=O)[C@H](C)NC(=O)[C@H](C)NC(=O)[C@H](CCC(N)=O)NC(=O)CNC(=O)[C@H](CCC(=O)O)NC(=O)NC[C@H](C)NC(=O)NC[C@H](C)NC(=O)NC[C@H](C)NC(=O)[C@@H](NC(=O)[C@H](CC(=O)O)NC(=O)[C@H](CO)NC(=O)[C@@H](NC(=O)[C@H](Cc1ccccc1)NC(=O)[C@@H](NC(=O)CNC(=O)[C@H](CCC(=O)O)NC(=O)CNC(=O)[C@@H](N)Cc1c[nH]cn1)[C@@H](C)O)[C@@H](C)O)C(C)C)C(=O)N[C@@H](C)C(=O)N[C@@H](Cc1c[nH]c2ccccc12)C(=O)N[C@@H](CC(C)C)C(=O)N[C@H](C(=O)N[C@@H](CCCCN)C(=O)NCC(=O)N[C@@H](CCCNC(=N)N)C(=O)NCC(N)=O)C(C)C` [compound 4, GG2[A^uA^uA^u]^11-14], in assay [1], the “LogEC50 (best-fit value)” value is listed as -7.014 and the “Potency (%), percentage of potency compare to GLP-1-G^2” value was 0.2%. In addition, in assay [2], the response was half-maximal at 0.097 µM (EC50) and the Emax worked out at 81.8%.
In the same order, the values of `CC[C@H](C)[C@H](NC(=O)[C@H](Cc1ccccc1)NC(=O)[C@H](CCC(=O)O)NC(=O)[C@H](CCCCN)NC(=O)NC[C@H](C)NC(=O)NC[C@H](C)NC(=O)NC[C@H](C)NC(=O)[C@H](CCC(=O)O)NC(=O)[C@H](CC(C)C)NC(=O)[C@H](Cc1ccc(O)cc1)NC(=O)[C@H](CO)NC(=O)[C@H](CO)NC(=O)[C@@H](NC(=O)[C@H](CC(=O)O)NC(=O)[C@H](CO)NC(=O)[C@@H](NC(=O)[C@H](Cc1ccccc1)NC(=O)[C@@H](NC(=O)CNC(=O)[C@H](CCC(=O)O)NC(=O)CNC(=O)[C@@H](N)Cc1c[nH]cn1)[C@@H](C)O)[C@@H](C)O)C(C)C)C(=O)N[C@@H](C)C(=O)N[C@@H](Cc1c[nH]c2ccccc12)C(=O)N[C@@H](CC(C)C)C(=O)N[C@H](C(=O)N[C@@H](CCCCN)C(=O)NCC(=O)N[C@@H](CCCNC(=N)N)C(=O)NCC(N)=O)C(C)C` [compound 12, GG2[A^uA^uA^u]^16-19] are -6.619, 0.1%, 0.24 µM and 65%.
With `CC[C@H](C)[C@H](NC(=O)[C@H](Cc1ccccc1)NC(=O)[C@H](CCC(=O)O)NC(=O)[C@H](CCCCN)NC(=O)[C@H](C)NC(=O)[C@H](C)NC(=O)[C@H](CCC(N)=O)NC(=O)CNC(=O)[C@H](CCC(=O)O)NC(=O)[C@H](CC(C)C)NC(=O)[C@H](Cc1ccc(O)cc1)NC(=O)[C@H](CO)NC(=O)[C@H](CO)NC(=O)[C@@H](NC(=O)[C@H](CC(=O)O)NC(=O)[C@H](CO)NC(=O)[C@@H](NC(=O)[C@H](Cc1ccccc1)NC(=O)[C@@H](NC(=O)CNC(=O)[C@H](CCC(=O)O)NC(=O)CNC(=O)[C@@H](N)Cc1c[nH]cn1)[C@@H](C)O)[C@@H](C)O)C(C)C)C(=O)N[C@@H](C)CNC(=O)N[C@@H](C)CNC(=O)N[C@@H](C)CNC(=O)N[C@@H](CCCCN)C(=O)NCC(=O)N[C@@H](CCCNC(=N)N)C(=O)NCC(N)=O` [compound 18, GG2[A^uA^uA^u]^24-27], the “Potency (%), percentage of potency compare to GLP-1-G^2” value in assay [1] is recorded as less than 0.01%. For the same compound, in assay [2], the EC50 is greater than 10 µM and the Emax amounted to 198%.

The values above are taken from article PMC6389962 (Nature Communications, 2019).
